Experimental data taken from patent publication US20240207414A1, “DISULFIDE-BASED PRODRUG COMPOUND” (Ludwig-Maximilians-Universitat Munchen, priority 2021, published 2024).

Assays:
[1] = target: T1, thioredoxin reductase 1 (TrxR1) (Homo sapiens, UniProt Q16881); test: Enzymatic activation assay: NADPH/TrxR1 without Trx; type: biochemical; details: NADPH/TrxR1, no Trx added, 37° C., 6 h
T1 sequence (Q16881 1-499 isoform Q16881-5): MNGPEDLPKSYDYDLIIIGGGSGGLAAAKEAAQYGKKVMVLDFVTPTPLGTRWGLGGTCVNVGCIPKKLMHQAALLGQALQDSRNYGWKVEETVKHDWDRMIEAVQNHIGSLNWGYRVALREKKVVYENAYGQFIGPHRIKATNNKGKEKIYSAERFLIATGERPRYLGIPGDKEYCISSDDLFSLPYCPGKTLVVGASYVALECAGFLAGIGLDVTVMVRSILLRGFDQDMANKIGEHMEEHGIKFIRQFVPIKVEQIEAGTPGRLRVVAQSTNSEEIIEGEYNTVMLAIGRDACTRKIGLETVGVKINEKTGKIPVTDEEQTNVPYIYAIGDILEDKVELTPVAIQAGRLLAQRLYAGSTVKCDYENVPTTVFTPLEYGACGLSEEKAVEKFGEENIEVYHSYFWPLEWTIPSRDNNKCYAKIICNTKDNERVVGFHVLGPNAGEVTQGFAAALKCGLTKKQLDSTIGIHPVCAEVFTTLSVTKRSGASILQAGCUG
Source text: (§1) This assay (see FIG. 2) examined the resistance of disulfide-based reduction-triggered compounds to the major cellular enzymatic systems that maintain redox homeostasis and are capable of reducing disulfides, evaluated in a cell-free assay, to see if these compounds can be useful for selective enzyme-triggered release.
(§2) Assay conditions: A black 96-well plate with black bottom was charged with solutions of fluorophore-releasing reduction-triggered probes that are compounds of the invention (P1, P2) or that are not compounds of the invention and reveal the performance of prior art systems (X19) (50 μL; 40 μM in aq. TE buffer (pH 7.4) and 4 μL DMSO). Separately, master mixes (30 μL in aq. TE buffer (pH 7.4)) containing mixtures of the proteins human recombinant thioredoxin 1 (Trx1, 0.166-16.66 μM) or thioredoxin 2 (Trx2, 3.3 μM), or human recombinant glutaredoxin 1 (“Grx1”, 3.3 μM) or glutaredoxin 2 (Grx2, 3.3 μM) and/or oxidoreductases human recombinant thioredoxin reductase 1 (TrxR1, 0.07 μM), the thioredoxin reductase Secys498Cys mutant (TrxR1-U498C, 0.07 μM), thioredoxin reductase 2 (TrxR2, 0.07 μM) or human recombinant glutathione reductase (GR, 0.07 μM), and/or GSH (3.3 μM) were prepared. Note that TrxR1 (U498C) has decreased reducing power compared to TrxR1 due to the mutation of the key vicinal selenothiol/thiol into a vicinal dithiol, but it still reduces Trx1. […]
(§3) Data Representation: (F(t)-F^NADPH(t)) is the fluorescence intensity of the test solution at time t, from which is subtracted a background fluorescence level also at time t from a solution with NADPH (which itself is fluorescent, and is present in 10-fold higher concentration than the probe) and with the same protein mixture but without the probe. F^max(t) is the maximum possible fluorescence intensity value at time t, determined by incubation with TCEP (100 μM)) similarly as for the chemical reductant assay. (F(t)−F^NADPH(t))/F^max(t) thus gives the timecourse of fluorescence signal, as a fraction of the maximum possible fluorescence signal. […]

[2] = target: T2, NADPH/TrxR1/Trx1 (Homo sapiens, UniProt P10599); test: Enzymatic activation assay: NADPH/TrxR1/Trx1 system; type: biochemical; details: NADPH/TrxR1 plus Trx1, 37° C., 6 h
T2 sequence (P10599 1-105): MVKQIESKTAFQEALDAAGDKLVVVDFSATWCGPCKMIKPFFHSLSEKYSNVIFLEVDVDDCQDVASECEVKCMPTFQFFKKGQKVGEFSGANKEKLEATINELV
Source text: as §1, §2, §3

[3] = system: HeLa, A549 and MEF cells; test: Cellular reduction assay (FIG. 3); type: cell-based, human, mouse; details: 100 μM, 1% vol DMSO, cells under ordinary conditions
Method: Assay Conditions: Cells were cultured under standard conditions (Gao, L. et al. Cell Chemical Biology 2021, 28, 1-14. https://doi.org/10.1016/j.chembiol.2020.11.007), left to adhere for 24 h, then compounds were added to 100 μM with 1% vol DMSO. Fluorescence timecourse measurements were acquired as in the chemoreductant assay, with all conditions in triplicates.
Data Representation: F(t)-F(0) is the fluorescence intensity signal increase as compared to time zero signal (fluorescence intensity immediately following compound addition, before probe activation can occur), in arbitrary units although with the same detection settings for all probes releasing the same cargo. This corresponds to reduction-triggered cargo release. “ctrf” indicates cells not treated with probes, as a negative control.

Compound | cargo release / processing by TrxR1 [1] | cargo release / processing by TrxR plus Trx1 [2] | cargo release inside cells (fluorescence signal increase over time) [3]
4-chloro-2-(6-chloro-4-oxo-3,4-dihydroquinazolin-2-yl)phenyl methyl(2-((2-(methyl amino)ethyl)disulfaneyl)ethyl)carbamate [Compound X19, reference compound] | rapidly degraded | enhanced reaction kinetics | substantially release cargo inside cells cultured under ordinary conditions
O=C(Oc1ccc(Cl)cc1-c1nc2ccc(Cl)cc2c(=O)[nH]1)N1CCC[C@@H]2CSSC[C@H]21 (racemic) [Compound P1, 4-chloro-2-(6-chloro-4-oxo-3,4-dihydroquinazolin-2-yl)phenyl-(trans)-hexahydro-[1,2]dithiino[4,5-b]pyridine-1(2H)-carboxylate] | not processed | processed when additional high levels of Trx1 and Trx2 are added | do not release cargo inside cells under ordinary conditions
O=C(Oc1ccc(Cl)cc1-c1nc2ccc(Cl)cc2c(=O)[nH]1)N1CCC[C@@H]2CSSC[C@@H]21 (racemic) [Compound P2, 4-chloro-2-(6-chloro-4-oxo-3,4-dihydroquinazolin-2-yl)phenyl-(cis)-hexahydro-[1,2]dithiino[4,5-b]pyridine-1(2H)-carboxylate] | not processed | processed when additional high levels of Trx1 and Trx2 are added | do not release cargo inside cells under ordinary conditions
